# Data: article PMC4188808 (Neuropharmacology, 2014)
# Legend:
# [1] = tested on: N-methyl-D-aspartate receptor (NMDAR); parameters: species or system Rattus norvegicus
# [2] = target: NMDAR expressing GluN2B (NR2B) subunits (Rattus norvegicus, UniProt P35439+Q00960); assay type: cell-based
# NMDAR expressing GluN2B (NR2B) subunits, sequence (Q00960 27-1482, other chains not shown): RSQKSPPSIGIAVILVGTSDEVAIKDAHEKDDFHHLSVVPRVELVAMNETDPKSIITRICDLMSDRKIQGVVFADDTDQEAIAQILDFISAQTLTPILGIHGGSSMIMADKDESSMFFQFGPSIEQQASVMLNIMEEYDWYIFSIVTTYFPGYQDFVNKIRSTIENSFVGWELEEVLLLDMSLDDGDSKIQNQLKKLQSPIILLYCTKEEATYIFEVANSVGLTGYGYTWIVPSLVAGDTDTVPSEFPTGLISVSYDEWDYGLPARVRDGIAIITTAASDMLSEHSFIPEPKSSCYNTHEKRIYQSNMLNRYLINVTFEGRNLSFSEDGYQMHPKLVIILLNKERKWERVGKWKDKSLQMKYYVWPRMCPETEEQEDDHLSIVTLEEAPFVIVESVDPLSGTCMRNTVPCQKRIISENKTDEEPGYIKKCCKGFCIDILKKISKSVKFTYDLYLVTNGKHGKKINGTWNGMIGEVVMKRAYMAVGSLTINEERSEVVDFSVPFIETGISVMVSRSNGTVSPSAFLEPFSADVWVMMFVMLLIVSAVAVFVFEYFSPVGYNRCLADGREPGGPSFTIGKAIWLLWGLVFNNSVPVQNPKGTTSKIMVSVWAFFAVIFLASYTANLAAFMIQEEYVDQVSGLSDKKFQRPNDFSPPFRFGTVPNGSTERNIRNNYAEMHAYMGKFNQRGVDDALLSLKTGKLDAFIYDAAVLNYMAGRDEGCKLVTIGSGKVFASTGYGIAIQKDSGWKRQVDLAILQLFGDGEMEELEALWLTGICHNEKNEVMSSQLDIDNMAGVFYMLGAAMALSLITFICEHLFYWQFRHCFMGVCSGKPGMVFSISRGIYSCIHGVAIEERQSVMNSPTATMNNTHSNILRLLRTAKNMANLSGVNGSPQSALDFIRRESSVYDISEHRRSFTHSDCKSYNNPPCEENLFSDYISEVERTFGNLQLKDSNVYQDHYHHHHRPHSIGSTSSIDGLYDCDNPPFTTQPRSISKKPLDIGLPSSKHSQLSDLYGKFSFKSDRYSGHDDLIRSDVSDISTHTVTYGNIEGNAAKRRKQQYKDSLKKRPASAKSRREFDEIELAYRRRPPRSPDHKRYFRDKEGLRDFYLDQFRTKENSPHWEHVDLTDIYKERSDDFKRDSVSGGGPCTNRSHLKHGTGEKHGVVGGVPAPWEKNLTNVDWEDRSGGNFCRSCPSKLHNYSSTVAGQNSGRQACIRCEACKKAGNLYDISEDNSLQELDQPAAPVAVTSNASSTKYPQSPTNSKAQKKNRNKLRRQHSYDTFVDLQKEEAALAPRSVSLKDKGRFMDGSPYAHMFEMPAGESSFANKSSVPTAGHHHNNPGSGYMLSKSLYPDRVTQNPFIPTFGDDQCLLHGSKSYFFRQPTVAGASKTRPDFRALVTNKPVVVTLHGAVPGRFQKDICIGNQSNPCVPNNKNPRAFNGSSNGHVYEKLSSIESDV
smiles,measurement,setting,value
CNC1(c2ccccc2Cl)CCCCC1=O (racemic) [ketamine],EC50,[1],~10 µM
CC(C(O)c1ccc(O)cc1)N1CCC(Cc2ccccc2)CC1 (centres unmarked) [ifenprodil],% inhibition at 10 μM,[2],43.4 ± 7.3
